Laboratory results from patent US20260297085A1, “1 H-PYRROLO[2,3-B]PYRIDIN-4-YL]-2-OXOPYRROLIDINE-3-CARBONITRILE DERIVATIVES AS TYROSINE KINASE 2 (TYK2) INHIBITORS FOR THE TREATMENT OF INFLAMMATORY DISEASES” (BIOGEN MA INC., priority 2023, published 2026).
Where a name gives a salt, the structure may show the parent alone.

Assays:
[1] = molecular target: JAK1 kinase activity on STAT3 in TF1 cells (Homo sapiens, UniProt P23458); assay: pSTAT3 cell assay (MSD; TF1 cells, 30 ng/mL IL-6 stimulation); assay type: cell-based; details: 30 ng/mL IL-6, 15 minutes
How it was run: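 IC50 values derive from 4-parameter logistic fits of normalized pSTAT3 signal, measured by MSD with anti-STAT3 antibodies. TF1 cells, serum-starved beforehand, received compound for 1 hour (top concentration 10 μM, four-fold steps, 10 points) before a 15-minute IL-6 (30 ng/mL) stimulus.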

[2] = molecular target: T1, human TYK2 kinase domain (JH1) (Homo sapiens, UniProt P29597); assay: JH1 biochemical assay for TYK2 (ADP-Glo kinase assay, recombinant JH1 catalytic domain, JAK3-974 peptide, 10 μM ATP)
T1 construct: recombinantly generated catalytic kinase (also known as JH1) domain of human JAK1, JAK2, JAK3 and TYK2
T1 sequence (P29597 897-1176 limits assumed): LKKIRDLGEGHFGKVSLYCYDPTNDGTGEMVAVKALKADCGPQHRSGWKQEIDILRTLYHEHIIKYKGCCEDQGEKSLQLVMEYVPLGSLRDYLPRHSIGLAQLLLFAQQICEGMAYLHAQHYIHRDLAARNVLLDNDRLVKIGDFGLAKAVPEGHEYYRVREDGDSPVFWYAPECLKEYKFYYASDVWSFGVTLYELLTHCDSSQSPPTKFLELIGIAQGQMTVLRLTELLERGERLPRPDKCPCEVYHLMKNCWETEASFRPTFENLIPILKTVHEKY
How it was run: (§1)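 Reactions ran 100 min with 50 μM substrate peptide (JAK3-342 for JAK1 at 4 nM enzyme; JAK3-974 for JAK2 0.2 nM, JAK3 0.3 nM, TYK2 2 nM), and ADP formed was read by ADP-Glo luminescence. Eleven-point 3-fold series from 10 or 1 μM; IC50 fitted by 4-parameter logistic model.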

[3] = molecular target: T2, human JAK3 kinase domain (JH1) (Homo sapiens, UniProt P52333); assay: JH1 biochemical assay for JAK3 (ADP-Glo kinase assay, recombinant JH1 catalytic domain, JAK3-974 peptide, 4 μM ATP)
T2 construct: recombinantly generated catalytic kinase (also known as JH1) domain of human JAK1, JAK2, JAK3 and TYK2
How it was run: as §1

[4] = molecular target: Tyk2 kinase activity on STAT4 in NK92 cells (Homo sapiens, UniProt P29597); assay: pSTAT4 cell assay (MSD; NK92 cells, 30 ng/mL IL2 stimulation); assay type: cell-based; details: 30 ng/mL IL2, 15 minutes
How it was run: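 Cells natively expressing STAT4 and Tyk2 (NK92) are serum-starved to lower background phosphorylation, exposed to compound for 1 hr over a 10-point four-fold series starting at 10 μM, and stimulated with 30 ng/mL IL2 for 15 minutes. Phosphorylation is quantified on MSD with anti-STAT4 antibodies.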

[5] = molecular target: JAK2 kinase activity on STAT5 in TF1 cells (Homo sapiens, UniProt O60674); assay: pSTAT5 cell assay (MSD; TF1 cells, 30 ng/mL IL-3 stimulation); assay type: cell-based; details: 30 ng/mL IL-3, 15 minutes
How it was run: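 IC50 from a 4-parameter logistic fit of normalized pSTAT5 signal, measured by MSD in lysates of TF1 cells. Cells were serum-starved, exposed to compound for 1 h (top concentration 10 μM, four-fold, 10 points), then given IL-3 at 30 ng/mL for 15 min.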

[6] = molecular target: T3, human JAK1 kinase domain (JH1) (Homo sapiens, UniProt P23458); assay: JH1 biochemical assay for JAK1 (ADP-Glo kinase assay, recombinant JH1 catalytic domain, JAK3-342 peptide, 35 μM ATP)
T3 construct: recombinantly generated catalytic kinase (also known as JH1) domain of human JAK1, JAK2, JAK3 and TYK2
How it was run: as §1

[7] = molecular target: T4, human JAK2 kinase domain (JH1) (Homo sapiens, UniProt O60674); assay: JH1 biochemical assay for JAK2 (ADP-Glo kinase assay, recombinant JH1 catalytic domain, JAK3-974 peptide, 15 μM ATP)
T4 construct: recombinantly generated catalytic kinase (also known as JH1) domain of human JAK1, JAK2, JAK3 and TYK2
How it was run: as §1

Chain of JAK2 kinase activity on STAT5 in TF1 cells (O60674 whole entry): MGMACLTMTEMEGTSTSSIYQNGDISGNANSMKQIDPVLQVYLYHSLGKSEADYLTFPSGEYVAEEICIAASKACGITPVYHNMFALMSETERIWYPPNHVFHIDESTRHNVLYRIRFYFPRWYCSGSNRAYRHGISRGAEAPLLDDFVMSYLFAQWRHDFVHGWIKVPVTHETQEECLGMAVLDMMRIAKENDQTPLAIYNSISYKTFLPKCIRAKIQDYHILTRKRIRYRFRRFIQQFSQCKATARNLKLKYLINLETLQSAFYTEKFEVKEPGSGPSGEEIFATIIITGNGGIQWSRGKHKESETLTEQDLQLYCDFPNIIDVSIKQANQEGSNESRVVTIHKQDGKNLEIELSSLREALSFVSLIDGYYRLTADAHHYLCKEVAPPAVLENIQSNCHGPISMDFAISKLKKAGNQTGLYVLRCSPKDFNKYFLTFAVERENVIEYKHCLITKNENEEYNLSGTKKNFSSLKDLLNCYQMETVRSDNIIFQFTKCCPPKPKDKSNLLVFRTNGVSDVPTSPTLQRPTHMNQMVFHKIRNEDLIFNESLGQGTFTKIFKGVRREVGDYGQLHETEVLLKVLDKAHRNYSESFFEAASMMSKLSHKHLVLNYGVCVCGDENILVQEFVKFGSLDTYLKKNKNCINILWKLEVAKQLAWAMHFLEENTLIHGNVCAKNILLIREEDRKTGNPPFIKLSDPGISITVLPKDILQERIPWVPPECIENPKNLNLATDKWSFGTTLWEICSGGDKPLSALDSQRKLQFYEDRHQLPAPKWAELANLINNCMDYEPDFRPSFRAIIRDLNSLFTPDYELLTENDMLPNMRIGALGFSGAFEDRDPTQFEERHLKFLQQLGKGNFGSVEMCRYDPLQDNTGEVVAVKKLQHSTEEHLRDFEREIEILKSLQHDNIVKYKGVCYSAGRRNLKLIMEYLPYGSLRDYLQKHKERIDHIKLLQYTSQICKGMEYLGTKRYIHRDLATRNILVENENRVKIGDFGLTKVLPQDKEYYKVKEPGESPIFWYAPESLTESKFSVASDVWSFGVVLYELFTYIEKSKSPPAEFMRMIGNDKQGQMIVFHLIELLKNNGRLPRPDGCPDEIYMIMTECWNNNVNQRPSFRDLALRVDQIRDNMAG
Chain of JAK1 kinase activity on STAT3 in TF1 cells (P23458 whole entry): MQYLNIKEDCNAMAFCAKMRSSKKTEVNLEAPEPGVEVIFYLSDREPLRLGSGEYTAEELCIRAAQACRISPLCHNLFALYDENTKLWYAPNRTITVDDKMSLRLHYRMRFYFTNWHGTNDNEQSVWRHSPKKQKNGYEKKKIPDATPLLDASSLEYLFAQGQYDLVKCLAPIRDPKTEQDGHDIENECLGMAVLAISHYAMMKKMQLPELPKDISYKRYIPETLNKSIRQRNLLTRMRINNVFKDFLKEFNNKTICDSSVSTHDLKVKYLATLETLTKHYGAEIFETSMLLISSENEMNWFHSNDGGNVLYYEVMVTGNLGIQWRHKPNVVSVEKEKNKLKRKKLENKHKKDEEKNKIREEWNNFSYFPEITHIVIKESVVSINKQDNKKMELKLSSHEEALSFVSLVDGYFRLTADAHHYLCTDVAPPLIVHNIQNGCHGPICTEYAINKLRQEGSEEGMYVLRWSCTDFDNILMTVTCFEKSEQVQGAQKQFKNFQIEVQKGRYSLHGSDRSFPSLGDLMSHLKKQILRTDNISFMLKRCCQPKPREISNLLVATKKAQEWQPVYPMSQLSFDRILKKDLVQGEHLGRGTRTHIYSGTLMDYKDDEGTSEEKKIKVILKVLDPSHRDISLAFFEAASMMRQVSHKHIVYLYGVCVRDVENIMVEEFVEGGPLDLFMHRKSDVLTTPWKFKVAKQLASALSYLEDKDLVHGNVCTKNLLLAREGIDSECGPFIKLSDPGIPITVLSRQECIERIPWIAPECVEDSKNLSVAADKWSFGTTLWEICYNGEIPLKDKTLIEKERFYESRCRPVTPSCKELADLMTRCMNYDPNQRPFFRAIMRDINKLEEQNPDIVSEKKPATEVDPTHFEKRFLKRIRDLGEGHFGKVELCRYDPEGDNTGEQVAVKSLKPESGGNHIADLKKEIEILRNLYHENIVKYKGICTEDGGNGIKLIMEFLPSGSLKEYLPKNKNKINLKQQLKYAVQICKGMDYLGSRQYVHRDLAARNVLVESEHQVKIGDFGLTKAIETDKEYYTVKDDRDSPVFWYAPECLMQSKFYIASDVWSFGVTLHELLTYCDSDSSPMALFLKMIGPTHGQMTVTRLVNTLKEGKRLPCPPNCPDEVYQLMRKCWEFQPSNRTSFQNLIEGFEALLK
T4 sequence (O60674 849-1124 limits assumed): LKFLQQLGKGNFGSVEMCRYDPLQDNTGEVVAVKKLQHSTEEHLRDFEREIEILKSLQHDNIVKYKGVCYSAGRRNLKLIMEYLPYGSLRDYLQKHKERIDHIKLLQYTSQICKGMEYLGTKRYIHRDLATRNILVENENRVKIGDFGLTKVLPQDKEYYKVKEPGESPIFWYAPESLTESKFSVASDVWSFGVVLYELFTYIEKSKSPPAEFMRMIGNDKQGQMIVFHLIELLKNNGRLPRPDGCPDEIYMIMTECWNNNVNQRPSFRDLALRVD
Chain of Tyk2 kinase activity on STAT4 in NK92 cells (P29597 whole entry): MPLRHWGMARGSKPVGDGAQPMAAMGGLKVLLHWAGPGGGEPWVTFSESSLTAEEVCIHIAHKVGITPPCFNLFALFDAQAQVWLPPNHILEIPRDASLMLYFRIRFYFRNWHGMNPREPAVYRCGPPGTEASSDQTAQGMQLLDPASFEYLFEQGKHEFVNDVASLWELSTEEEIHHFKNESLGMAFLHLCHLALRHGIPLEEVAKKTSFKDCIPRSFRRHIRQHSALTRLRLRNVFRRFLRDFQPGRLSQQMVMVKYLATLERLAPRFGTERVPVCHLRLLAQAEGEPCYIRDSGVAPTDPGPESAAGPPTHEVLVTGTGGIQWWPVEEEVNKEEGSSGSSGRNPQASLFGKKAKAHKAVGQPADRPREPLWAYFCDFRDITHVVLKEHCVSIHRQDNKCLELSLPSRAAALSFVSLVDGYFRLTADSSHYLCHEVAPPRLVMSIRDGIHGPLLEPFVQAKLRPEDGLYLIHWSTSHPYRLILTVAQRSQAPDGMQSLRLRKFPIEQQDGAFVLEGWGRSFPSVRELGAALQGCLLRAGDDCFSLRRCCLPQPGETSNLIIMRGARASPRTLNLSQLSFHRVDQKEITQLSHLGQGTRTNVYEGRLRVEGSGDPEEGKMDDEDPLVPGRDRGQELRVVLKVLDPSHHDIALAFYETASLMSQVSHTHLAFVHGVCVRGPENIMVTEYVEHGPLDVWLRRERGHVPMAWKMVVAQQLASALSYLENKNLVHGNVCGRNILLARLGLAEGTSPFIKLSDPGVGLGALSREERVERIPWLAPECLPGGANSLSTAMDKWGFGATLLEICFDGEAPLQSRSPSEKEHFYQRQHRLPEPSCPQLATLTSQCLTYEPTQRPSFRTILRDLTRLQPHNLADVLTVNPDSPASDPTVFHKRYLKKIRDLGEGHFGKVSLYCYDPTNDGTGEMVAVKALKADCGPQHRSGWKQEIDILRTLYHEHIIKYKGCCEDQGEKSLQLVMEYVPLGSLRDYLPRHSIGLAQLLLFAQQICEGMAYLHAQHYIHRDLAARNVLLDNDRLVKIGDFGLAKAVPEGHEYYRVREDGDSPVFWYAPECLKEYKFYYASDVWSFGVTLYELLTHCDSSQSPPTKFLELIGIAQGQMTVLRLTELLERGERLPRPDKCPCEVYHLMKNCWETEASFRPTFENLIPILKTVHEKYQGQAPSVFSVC
T3 sequence (P23458 875-1153 limits assumed): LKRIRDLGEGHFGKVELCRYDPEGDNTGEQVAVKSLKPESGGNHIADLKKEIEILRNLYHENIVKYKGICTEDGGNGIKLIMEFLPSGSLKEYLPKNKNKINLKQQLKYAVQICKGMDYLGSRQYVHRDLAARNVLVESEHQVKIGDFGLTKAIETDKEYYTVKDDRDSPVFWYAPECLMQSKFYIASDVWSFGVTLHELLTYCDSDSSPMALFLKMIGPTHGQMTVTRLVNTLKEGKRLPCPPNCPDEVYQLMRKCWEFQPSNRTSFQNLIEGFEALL
T2 sequence (P52333 822-1111 limits assumed): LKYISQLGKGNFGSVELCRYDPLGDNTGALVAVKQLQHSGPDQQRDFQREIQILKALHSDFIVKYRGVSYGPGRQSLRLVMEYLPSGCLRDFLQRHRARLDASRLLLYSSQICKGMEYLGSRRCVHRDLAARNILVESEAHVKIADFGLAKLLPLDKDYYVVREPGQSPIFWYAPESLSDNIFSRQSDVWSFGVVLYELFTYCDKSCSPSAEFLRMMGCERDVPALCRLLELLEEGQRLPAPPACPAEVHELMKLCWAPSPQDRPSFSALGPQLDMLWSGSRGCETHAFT

Row | SMILES | IC50 [1] [nM] | IC50 ([2]; TYK2 JH1, ADP-Glo) [nM] | IC50 ([3]; JAK3 JH1, ADP-Glo) [nM] | IC50 [4] [nM] | IC50 [5] [nM] | IC50 ([6]; JAK1 JH1, ADP-Glo) [nM] | IC50 ([7]; JAK2 JH1, ADP-Glo) [nM] | IC50 ([2]; JH1 kinase domain, ADP-Glo) [nM] | IC50 ([3]; JH1 kinase domain, ADP-Glo) [nM] | IC50 ([6]; JH1 kinase domain, ADP-Glo) [nM] | IC50 ([7]; JH1 kinase domain, ADP-Glo) [nM]
1 | C[C@@H]1CN(c2ccnn3cc(-c4ccnc(C(F)(F)F)c4)cc23)C(=O)[C@]1(C#N)C1CC1 [Example 69, (3R,4S)-3-cyclopropyl-4-methyl-2-oxo-1-(6-(2-(trifluoromethyl)pyridin-4-yl)pyrrolo[1,2-b]pyridazin-4-yl)pyrrolidine-3-carbonitrile] | 5000 to 10000 |  |  | > 100 | > 10000 |  |  | 5 to 20 | 100 to 1000 | 100 to 1000 | 1000 to 5000
2 | C[C@@H]1CN(c2ccnn3cc(-c4ccn(C)n4)cc23)C(=O)[C@]1(C#N)C1CC1 [Example 63, (3R,4S)-3-cyclopropyl-4-methyl-1-(6-(1-methyl-1H-pyrazol-3-yl)pyrrolo[1,2-b]pyridazin-4-yl)-2-oxopyrrolidine-3-carbonitrile] | > 10000 |  |  | > 100 | > 10000 |  |  | 5 to 20 | 100 to 1000 | 100 to 1000 | 100 to 1000
3 | COc1ccc(-c2cc3c(N4C[C@@H](C)[C@@](C#N)(C5CC5)C4=O)ccnn3c2)nc1 [Example 145, (3R,4S)-3-cyclopropyl-1-(6-(5-methoxypyridin-2-yl)pyrrolo[1,2-b]pyridazin-4-yl)-4-methyl-2-oxopyrrolidine-3-carbonitrile trifluoroacetate] | 5000 to 10000 |  |  | > 100 | > 10000 |  |  | 5 to 20 | 100 to 1000 | 100 to 1000 | 100 to 1000
4 | C[C@@H]1CN(c2ccnn3cc(-c4cccnc4)cc23)C(=O)[C@]1(C#N)C1CC1 [Example 60, (3R,4S)-3-cyclopropyl-4-methyl-2-oxo-1-(6-(pyridin-3-yl)pyrrolo[1,2-b]pyridazin-4-yl)pyrrolidine-3-carbonitrile] | 1000 to 5000 |  |  | > 100 | > 10000 |  |  | 5 to 20 | 100 to 1000 | 100 to 1000 | 100 to 1000
5 | C[C@@H]1CN(c2ccnn3cc(-c4cn(C)nn4)cc23)C(=O)[C@]1(C#N)C1CC1 [Example 112, (3R,4S)-3-cyclopropyl-4-methyl-1-(6-(1-methyl-1H-1,2,3-triazol-4-yl)pyrrolo[1,2-b]pyridazin-4-yl)-2-oxopyrrolidine-3-carbonitrile trifluoroacetate] | > 10000 |  |  | > 100 | > 10000 |  |  | 5 to 20 | 100 to 1000 | 100 to 1000 | 100 to 1000
6 | C[C@@H]1CN(c2ccnc3[nH]c(-c4cnn(C)c4)nc23)C(=O)[C@]1(C#N)C1CC1 [Example 181, (3R,4S)-3-cyclopropyl-4-methyl-1-(2-(1-methyl-1H-pyrazol-4-yl)-3H-imidazo[4,5-b]pyridin-7-yl)-2-oxopyrrolidine-3-carbonitrile] | 1000 to 5000 |  |  | > 100 | 5000 to 10000 |  |  | 5 to 20 | 100 to 1000 | 100 to 1000 | 100 to 1000
7 | Cc1ccc(-c2cc3c(N4C[C@@H](C)[C@@](C#N)(C5CC5)C4=O)ccnn3c2)cn1 [Example 67, (3R,4S)-3-cyclopropyl-4-methyl-1-(6-(6-methylpyridin-3-yl)pyrrolo[1,2-b]pyridazin-4-yl)-2-oxopyrrolidine-3-carbonitrile] | 1000 to 5000 |  |  | > 100 | 5000 to 10000 |  |  | 5 to 20 | 100 to 1000 | 100 to 1000 | 100 to 1000
8 | C[C@@H]1CN(c2nc(-c3cnn(C4CCOCC4)c3)cn3ncc(F)c23)C(=O)[C@]1(C#N)C1CC1 [Example 218, (3R,4S)-3-cyclopropyl-1-(3-fluoro-6-(1-(tetrahydro-2H-pyran-4-yl)-1H-pyrazol-4-yl)pyrazolo[1,5-a]pyrazin-4-yl)-4-methyl-2-oxopyrrolidine-3-carbonitrile] | 100 to 1000 | < 5 | < 100 | 50 to 100 | 100 to 1000 | < 100 | < 100 |  |  |  | 

More lines, now with the values ahead:

Row | IC50 [1] [nM] | IC50 ([2]; TYK2 JH1, ADP-Glo) [nM] | IC50 ([3]; JAK3 JH1, ADP-Glo) [nM] | IC50 [4] [nM] | IC50 [5] [nM] | IC50 ([6]; JAK1 JH1, ADP-Glo) [nM] | IC50 ([7]; JAK2 JH1, ADP-Glo) [nM] | IC50 ([2]; JH1 kinase domain, ADP-Glo) [nM] | IC50 ([3]; JH1 kinase domain, ADP-Glo) [nM] | IC50 ([6]; JH1 kinase domain, ADP-Glo) [nM] | IC50 ([7]; JH1 kinase domain, ADP-Glo) [nM] | SMILES
9 | 1000 to 5000 | < 5 | 100 to 1000 | > 100 | 5000 to 10000 | 100 to 1000 | 100 to 1000 |  |  |  |  | CCn1cc(-n2nc(N3C[C@@H](C)[C@@](C#N)(C4CC4)C3=O)c3ccncc32)cn1 [Example 277, (3R,4S)-3-cyclopropyl-1-(1-(1-ethyl-1H-pyrazol-4-yl)-1H-pyrazolo[3,4-c]pyridin-3-yl)-4-methyl-2-oxopyrrolidine-3-carbonitrile]
10 | 1000 to 5000 | 5 to 20 | < 100 | > 100 | > 10000 | < 100 | 100 to 1000 |  |  |  |  | C[C@@H]1CN(c2nc(-c3cncc(O)c3)cn3nccc23)C(=O)[C@]1(C#N)C1CC1 [Example 258, (3R,4S)-3-cyclopropyl-1-(6-(5-hydroxypyridin-3-yl)pyrazolo[1,5-a]pyrazin-4-yl)-4-methyl-2-oxopyrrolidine-3-carbonitrile trifluoroacetate]
11 | 100 to 1000 | < 5 | < 100 | 20 to 50 | 100 to 1000 | < 100 | < 100 |  |  |  |  | C[C@@H]1CN(c2ccnn3cc(-c4cnn([C@H]5C[C@@H](C#N)C5)c4)cc23)C(=O)[C@]1(C#N)C1CC1 [Example 329, (3R,4S)-1-(6-(1-((1s,3S)-3-cyanocyclobutyl)-1H-pyrazol-4-yl)pyrrolo[1,2-b]pyridazin-4-yl)-3-cyclopropyl-4-methyl-2-oxopyrrolidine-3-carbonitrile]
12 | 5000 to 10000 | < 5 | 100 to 1000 | > 100 | 5000 to 10000 | 100 to 1000 | 100 to 1000 |  |  |  |  | C[C@@H]1CN(c2nn(-c3cnn(C4COC4)c3)c3cnccc23)C(=O)[C@]1(C#N)C1CC1 [Example 278, (3R,4S)-3-cyclopropyl-4-methyl-1-(1-(1-(oxetan-3-yl)-1H-pyrazol-4-yl)-1H-pyrazolo[3,4-c]pyridin-3-yl)-2-oxopyrrolidine-3-carbonitrile]
13 | 1000 to 5000 | < 5 | < 100 | 20 to 50 | 1000 to 5000 | < 100 | < 100 |  |  |  |  | C[C@@H]1CN(c2ccnn3cc(-c4cnn([C@H]5C[C@H](C#N)C5)c4)cc23)C(=O)[C@]1(C#N)C1CC1 [Example 330, (3R,4S)-1-(6-(1-((1r,3R)-3-cyanocyclobutyl)-1H-pyrazol-4-yl)pyrrolo[1,2-b]pyridazin-4-yl)-3-cyclopropyl-4-methyl-2-oxopyrrolidine-3-carbonitrile]
14 | > 10000 | 5 to 20 | 100 to 1000 | > 100 | > 10000 | 100 to 1000 | 1000 to 5000 |  |  |  |  | C[C@@H]1CN(c2cc(-c3cnn(C)c3)cn3nccc23)C(=O)[C@]1(C#N)C1CC1 [Example 271, (3R,4S)-3-cyclopropyl-4-methyl-1-(6-(1-methyl-1H-pyrazol-4-yl)pyrazolo[1,5-a]pyridin-4-yl)-2-oxopyrrolidine-3-carbonitrile]
15 | > 10000 | 20 to 50 | 100 to 1000 | > 100 | > 10000 | 1000 to 5000 | 1000 to 5000 |  |  |  |  | Cc1ccn(-c2cc3c(N4C[C@@H](C)[C@@](C#N)(C5CC5)C4=O)ccnn3c2)n1 [Example 334, (3R,4S)-3-cyclopropyl-4-methyl-1-(6-(3-methyl-1H-pyrazol-1-yl)pyrrolo[1,2-b]pyridazin-4-yl)-2-oxopyrrolidine-3-carbonitrile]
16 | < 100 | < 5 | < 100 | 20 to 50 | < 100 | < 100 | < 100 |  |  |  |  | C[C@@H]1CN(c2nc(-c3cnn(C4CC4)c3)cc3ncsc23)C(=O)[C@]1(C#N)C1CC1 [Example 357, (3R,4S)-3-cyclopropyl-1-(6-(1-cyclopropyl-1H-pyrazol-4-yl)thiazolo[5,4-c]pyridin-4-yl)-4-methyl-2-oxopyrrolidine-3-carbonitrile]
